The text below walks through data of patent publication US8450313B2, “2,3-diaryl- or heteroaryl-substituted 1,1,1-trifluoro-2-hydroxypropyl compounds” (Hoffmann-La Roche Inc., priority 2009, dated 2013).

A word on the Ki: it is a dissociation constant, usually derived from enzyme kinetics or from competition with a known ligand.

For the test, the target named is T1, full length human recombinant glucocorticoid receptor (Homo sapiens, UniProt P04150).
T1 construct: It contains some partially purified full length human recombinant glucocorticoid receptor; purchased Panvera/Invitrogen PV4302
T1 sequence (P04150 1-777): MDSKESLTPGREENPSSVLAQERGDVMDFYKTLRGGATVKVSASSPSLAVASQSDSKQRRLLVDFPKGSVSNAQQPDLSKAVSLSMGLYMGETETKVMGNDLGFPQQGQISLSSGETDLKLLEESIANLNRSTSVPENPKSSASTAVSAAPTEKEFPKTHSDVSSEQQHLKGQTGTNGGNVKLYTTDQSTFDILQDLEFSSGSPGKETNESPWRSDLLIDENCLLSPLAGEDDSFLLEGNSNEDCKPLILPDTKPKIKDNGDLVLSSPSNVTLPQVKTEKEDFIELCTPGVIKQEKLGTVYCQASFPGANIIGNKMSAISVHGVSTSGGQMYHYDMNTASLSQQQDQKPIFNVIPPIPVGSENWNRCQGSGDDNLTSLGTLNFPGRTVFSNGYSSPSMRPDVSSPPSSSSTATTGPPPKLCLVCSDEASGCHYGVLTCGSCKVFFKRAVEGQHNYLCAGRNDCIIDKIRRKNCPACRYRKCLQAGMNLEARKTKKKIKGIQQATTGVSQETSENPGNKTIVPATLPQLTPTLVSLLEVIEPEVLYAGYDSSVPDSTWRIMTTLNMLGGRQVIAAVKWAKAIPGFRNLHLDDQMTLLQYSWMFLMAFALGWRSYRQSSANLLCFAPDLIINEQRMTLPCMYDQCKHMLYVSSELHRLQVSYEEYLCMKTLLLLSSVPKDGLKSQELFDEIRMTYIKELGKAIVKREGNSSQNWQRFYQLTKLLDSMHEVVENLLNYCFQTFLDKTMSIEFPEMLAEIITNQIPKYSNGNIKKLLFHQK
Briefly: Glucocorticoid Receptor Binding Assay (Glucocorticoid Receptor Competitor Assay far red kit, fluorescence polarization). The note with it: competition with fluorescent GR ligand Fluormone GS Far Red, 3 hours at 22° C., pH 7.4; Ki calculated from IC50 by Cheng-Prusoff. An outline of the steps:
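Compounds in serial dilution (from intermediate 4.2% DMSO stock) displace Fluormone GS Far Red from full-length human recombinant GR with stabilizing peptide, pH 7.4, incubated 3 hours at 22° C dark. Polarized fluorescence (610–660 nm) gives IC50 via sigmoidal fit, converted to Ki by Cheng-Prusoff.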
For `C[C@H](c1ccc(-c2cncc(C(=O)O)c2)cc1Cl)[C@@](O)(c1ccc2oc(=O)n(C)c2c1)C(F)(F)F` (relative stereo) [Example 191, 5-{3-Chloro-4-[3,3,3-trifluoro-2-hydroxy-1-methyl-2-(3-methyl-2-oxo-2,3-dihydro-benzooxazol-5-yl)-propyl]-phenyl}-nicotinic acid], the inhibition constant (Ki) was 1.4 nM.
Next, `COC(=O)c1cnc(Oc2ccc([C@@H](C)[C@@](O)(c3ccc4c(c3)N(C)C(=O)CO4)C(F)(F)F)c(Cl)c2)cn1` (racemic) [Example 227, 5-{3-Chloro-4-[3,3,3-trifluoro-2-hydroxy-1-methyl-2-(4-methyl-3-oxo-3,4-dihydro-2H-benzo[1,4]oxazin-6-yl)-propyl]-phenoxy}-pyrazine-2-carboxylic acid methyl ester]: 3 nM; `COc1cc(-c2ccc([C@@H](C)[C@@](O)(c3ccc4c(c3)n(C)c(=O)n4C)C(F)(F)F)c(Cl)c2)ccc1C(=O)O` (stereo in doubt) [Example 80, 3′-Chloro-4′-[2-(1,3-dimethyl-2-oxo-2,3-dihydro-1H-benzoimidazol-5-yl)-3,3,3-trifluoro-2-hydroxy-1-methyl-propyl]-3-methoxy-biphenyl-4-carboxylic acid]: 13.6 nM; `C[C@H](c1ccc(Oc2ncccc2C(=O)O)cc1Cl)[C@@](O)(c1ccc2c(c1)n(C)c(=O)n2C)C(F)(F)F` (stereo in doubt) [Example 105, 2-{3-Chloro-4-[2-(1,3-dimethyl-2-oxo-2,3-dihydro-1H-benzoimidazol-5-yl)-3,3,3-trifluoro-2-hydroxy-1-methyl-propyl]-phenoxy}-nicotinic acid]: 14.8 nM.
Next, `C[C@H](c1ccc(Oc2ccc(C(=O)O)nn2)cc1Cl)[C@@](O)(c1ccc2oc(=O)n(C)c2c1)C(F)(F)F` (relative stereo) [Example 201, 6-{3-Chloro-4-[3,3,3-trifluoro-2-hydroxy-1-methyl-2-(3-methyl-2-oxo-2,3-dihydro-benzooxazol-5-yl)-propyl]-phenoxy}-pyridazine-3-carboxylic acid]: 3.9 nM; `C[C@H](c1ccc(-c2ccc(F)c(C(=O)O)c2)cc1Cl)[C@@](O)(c1cccc(C#N)c1)C(F)(F)F` (stereo in doubt) [Example 154, 3′-Chloro-4′-[2-(3-cyano-phenyl)-3,3,3-trifluoro-2-hydroxy-1-methyl-propyl]-4-fluoro-biphenyl-3-carboxylic acid]: 33.7 nM; `COC(=O)c1cnc(Oc2ccc([C@H](C)[C@](O)(c3cc(C)c(C#N)c(C)c3)C(F)(F)F)c(Cl)c2)c(Cl)c1` (stereo in doubt) [Example 149, 5-Chloro-6-{3-chloro-4-[2-(4-cyano-3,5-dimethyl-phenyl)-3,3,3-trifluoro-2-hydroxy-1-methyl-propyl]-phenoxy}-nicotinic acid methyl ester]: 1.7 nM.
In the case of `C[C@H](c1ccc(-c2ccc(C(=O)O)cc2)cc1Cl)[C@@](O)(c1ccc2c(c1)n(C)c(=O)n2C)C(F)(F)F` (stereo in doubt) [Example 77, 3′-Chloro-4′-[2-(1,3-dimethyl-2-oxo-2,3-dihydro-1H-benzoimidazol-5-yl)-3,3,3-trifluoro-2-hydroxy-1-methyl-propyl]-biphenyl-4-carboxylic acid] it was 2.4 nM.
Take `COC(=O)c1ccc(-c2ccc([C@@H](C)[C@@](O)(c3cccc4c3OCC(=O)N4C)C(F)(F)F)c(Cl)c2)cc1F` (relative stereo) [Example 53, 3′-Chloro-3-fluoro-4′-[3,3,3-trifluoro-2-hydroxy-1-methyl-2-(4-methyl-3-oxo-3,4-dihydro-2H-benzo[1,4]oxazin-8-yl)-propyl]-biphenyl-4-carboxylic acid methyl ester]: the Ki was 66.1 nM.
Next, `COc1cc(-c2ccc([C@H](C)[C@](O)(c3ccc4c(c3)N(C)C(=O)CO4)C(F)(F)F)c(Cl)c2)ccc1C(=O)O` (relative stereo) [Example 36, 3′-Chloro-3-methoxy-4′-[3,3,3-trifluoro-2-hydroxy-1-methyl-2-(4-methyl-3-oxo-3,4-dihydro-2H-benzo[1,4]oxazin-6-yl)-propyl]-biphenyl-4-carboxylic acid]: 6.5 nM.
For `C[C@@H](c1ccc(-c2ccc(F)c(C(=O)O)c2)cc1Cl)[C@](O)(c1ccc2c(c1)N(C)C(=O)CO2)C(F)(F)F` (relative stereo) [Example 32, 3′-Chloro-4-fluoro-4′-[3,3,3-trifluoro-2-hydroxy-1-methyl-2-(4-methyl-3-oxo-3,4-dihydro-2H-benzo[1,4]oxazin-6-yl)-propyl]-biphenyl-3-carboxylic acid], the Ki was 1.3 nM.
Next, `CC(c1ccc(Oc2ccc(F)c(C(=O)O)c2)cc1Cl)C(O)(c1ccc2c(c1)n(C)c(=O)n2C)C(F)(F)F` (centres unmarked) [Example 91, 5-{3-Chloro-4-[2-(1,3-dimethyl-2-oxo-2,3-dihydro-1H-benzoimidazol-5-yl)-3,3,3-trifluoro-2-hydroxy-1-methyl-propyl]phenoxy}-2-fluoro-benzoic acid]: 0.3 nM; `Cc1cc([C@@](O)([C@@H](C)c2ccc(Oc3cc(C(F)(F)F)c(C(=O)O)cn3)cc2Cl)C(F)(F)F)cc(C)c1C#N` (stereo in doubt) [Example 146, 6-{3-Chloro-4-[2-(4-cyano-3,5-dimethyl-phenyl)-3,3,3-trifluoro-2-hydroxy-1-methyl-propyl]-phenoxy}-4-trifluoromethyl-nicotinic acid]: 1.4 nM.
Next, `C[C@H](c1ccc(Oc2ccc(C(=O)O)c(Cl)c2)cc1Cl)[C@@](O)(c1ccc2c(c1)OCC(=O)N2C)C(F)(F)F` (relative stereo) [Example 160, 2-Chloro-4-{3-chloro-4-[3,3,3-trifluoro-2-hydroxy-1-methyl-2-(4-methyl-3-oxo-3,4-dihydro-2H-benzo[1,4]oxazin-7-yl)-propyl]-phenoxy}-benzoic acid]: 1.3 nM; `CCOC(=O)c1ccc(Oc2ccc([C@@H](C)[C@@](O)(c3ccc4c(c3)N(C)C(=O)CO4)C(F)(F)F)c(Cl)c2)nc1C(F)(F)F` (racemic) [Example 214, 6-{3-Chloro-4-[3,3,3-trifluoro-2-hydroxy-1-methyl-2-(4-methyl-3-oxo-3,4-dihydro-2H-benzo[1,4]oxazin-6-yl)-propyl]-phenoxy}-2-trifluoromethyl-nicotinic acid ethyl ester]: 4.1 nM.
In the case of `C[C@H](c1ccc(-c2ccc(C(=O)O)c(F)c2)cc1Cl)[C@@](O)(c1ccc2c(c1)oc(=O)n2C)C(F)(F)F` (relative stereo) [Example 134, 3′-Chloro-3-fluoro-4′-[3,3,3-trifluoro-2-hydroxy-1-methyl-2-(3-methyl-2-oxo-2,3-dihydro-benzooxazol-6-yl)-propyl]-biphenyl-4-carboxylic acid] it was 109 nM; in that of `C[C@H](c1ccc(Oc2ccc(C(=O)O)c(Cl)n2)cc1Cl)[C@@](O)(c1ccc2oc(=O)n(C)c2c1)C(F)(F)F` (relative stereo) [Example 184, 2-Chloro-6-{3-chloro-4-[3,3,3-trifluoro-2-hydroxy-1-methyl-2-(3-methyl-2-oxo-2,3-dihydro-benzooxazol-5-yl)-propyl]-phenoxy}-nicotinic acid], 0.8 nM.
